How the values were obtained:
[1] = Cooling effect of creams rated on a 0 to 3 scale after application onto the forearms; assay type: in vivo, human; conditions: 1% in cream, forearm sensory score
Protocol: To measure the cooling effect, 100 mg of one of the creams 1 to 4 or of a placebo are applied onto the inner side of both forearms of persons who have agreed to test the product. After one minute, each participant is asked to rate the cooling effect on a scale of 0 to 3 (i.e. score), with 3 being the maximum effect.
Each cream (including the placebo) is applied randomly and blindly to the forearms of 17 people.

[2] = Skin temperature by thermal camera after application of creams on the back; assay type: in vivo, human; conditions: 1% in cream
Protocol: For this study, the cooling effect of 5 compositions containing different cooling agents is evaluated in vivo according to the following protocol.
22 female subjects aged from 18 to 63 were selected. On the back of each subject, between the two scapulas, six areas of 3 cm×2.5 cm are delimited. On 5 areas chosen each time randomly, 15 mg of the compositions to be tested are applied. Nothing is applied onto the sixth area (i.e. control).
From the time of application of the creams (T0), the skin temperature of the different zones is measured on each subject using a thermal camera (Thermovision SC6000HS (Flirsystems)—resolution 640×512—frequency 125 Hz) at the following times: T0, T0+15 s, T0+30 s, T0+45 s, T0+1 min, T0+1 min30 s, T0+2 min, T0+3 min, T0+4 min, T0+5 min, T0+6 min, T0+8 min and T0+10 min. The measurements are performed at 21° C.±1.5° C., the subject lying on their stomach and motionless. The temperatures are measured with an accuracy of around 0.10° C.
A variance test (ANOVA) is used to compile and validate the results. […]
If these two conditions are met, the statistical analysis allowing comparing the parameters measured at the different times is conducted by a one-factor variance analysis (ANOVA) test on repeated measurements. […]

## Cc1coc2c1C(=O)CC(C)C2 (stereo not drawn) [evodone, 6-dimethyl-6,7-dihydro-5H-1-benzofuran-4-one]
[1]
  Cooling effect compared with citriodiol or cubebol: cooling effect similar to that which can be provided by molecules such as citriodiol or cubebol
  Cooling effect compared with menthyl lactate (Frescolat ML): significantly greater than that obtained with menthyl lactate
[2]
  Cooling effect compared with menthyl lactate, citriodiol or cubebol: cooling effect similar to that which can be provided by molecules such as menthyl lactate

From patent publication US12133909B2, “Use of evodone or a derivative thereof as a cooling agent” (ROBERTET S.A., priority 2019, dated 2024)
